Assay results: patent publication US8530493B2, “Indolopyridines as Eg5 kinesin modulators” (4SC AG, priority 2006, dated 2013)

The compounds below were run on RKO p21 uninduced (proliferating) colon adenocarcinoma cells (assay: Alamar Blue cell viability assay, RKO p21 uninduced (proliferating)). Conditions: Homo sapiens, Table B3, anti-proliferative/cytotoxic activity, 72 hours, read-out: −log EC50 RKO p21 uninduced (proliferating) (converted).
Assay type: cell-based
Outline: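 RKO p21 or p27 subclones grown without Ponasterone A, i.e. proliferating, exposed 24 h after seeding to semi-log compound dilutions in DMEM/10% FCS (1% DMSO controls) for 72 h at 37° C. Alamar Blue fluorescence (544/590 nm) read relative to untreated cells; EC50 from dose-response curves, given as −log EC50 (mol/l).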

Compound	EC50 [nM]
CCN(C)CCCN1C(=O)N2[C@H](c3cccc(O)c3)c3[nH]c4cc(F)c(OC)cc4c3C[C@@]2(C)C1=O (racemic) [Example 311, (3aSR,10RS)-2-[3-(Ethyl-methyl-amino)-propyl]-7-fluoro-10-(3-hydroxy-phenyl)-6-methoxy-3a-methyl-3a,4,9,10-tetrahydro-2,9,10a-triaza-cyclopenta[b]fluorene-1,3-dione]	39.8 to 251
COc1cc2c3c([nH]c2cc1F)[C@@H](c1cccc(O)c1)N1C(=O)N(CCCN(C)CCO)C(=O)[C@]1(C)C3 (racemic) [Example 312, (3aSR,10RS)-7-Fluoro-2-{3-[(2-hydroxy-ethyl)-methyl-amino]-propyl}-10-(3-hydroyx-phenyl)-6-methoxy-3a-methyl-3a,4,9,10-tetrahydro-2,9,10a-triaza-cyclopenta[b]fluorene-1,3-dione]	39.8 to 251
CCN(CC)CCCN1C(=O)N2[C@H](c3cccc(O)c3)c3[nH]c4cc(F)c(OC)cc4c3C[C@@]2(C)C1=O (racemic) [Example 313, (3aSR,10RS)-2-(3-Diethylamino-propyl)-7-fluoro-10-(3-hydroxy-phenyl)-6-methoxy-3a-methyl-3a,4,9,10-tetrahydro-2,9,10a-triaza-cyclopenta[b]fluorene-1,3-dione]	39.8 to 251
CN(C)CCCN1C(=O)N2[C@H](c3cccc(O)c3)c3[nH]c4ccc(OC(F)F)cc4c3C[C@@]2(C)C1=O (racemic) [Example 314, (3aSR,10RS)-6-(1,1-Difluoro-methoxy)-2-(3-dimethylamino-propyl)-10-(3-hydroxy-phenyl)-3a-methyl-3a,4,9,10-tetrahydro-2,9,10a-triaza-cyclopenta[b]fluorene-1,3-dione]	≤ 39.8
CCN(CCO)CCCN1C(=O)N2[C@H](c3cccc(O)c3)c3[nH]c4cc(F)c(OC)cc4c3C[C@@]2(C)C1=O (racemic) [Example 315, (3aSR,10RS)-2-{3-[Ethyl-(2-hydroxy-ethyl)-amino]-propyl}-7-fluoro-10-(3-hydroxy-phenyl)-6-methoxy-3a-methyl-3a,4,9,10-tetrahydro-2,9,10a-triaza-cyclopenta[b]fluorene-1,3-dione]	39.8 to 251
CCN(CCCN1C(=O)N2[C@H](c3cccc(O)c3)c3[nH]c4cc(F)c(OC)cc4c3C[C@@]2(C)C1=O)CCOC (racemic) [Example 316, (3aSR,10RS)-2-{3-[Ethyl-(2-methoxy-ethyl)-amino]-propyl}-7-fluoro-10-(3-hydroxy-phenyl)-6-methoxy-3a-methyl-3a,4,9,10-tetrahydro-2,9,10a-triaza-cyclopenta[b]fluorene-1,3-dione]	39.8 to 251
C=CCN(C)CCCN1C(=O)N2[C@H](c3cccc(O)c3)c3[nH]c4cc(F)c(OC)cc4c3C[C@@]2(C)C1=O (racemic) [Example 317, (3aSR,10RS)-2-[3-(Allyl-methyl-amino)-propyl]-7-fluoro-10-(3-hydroyx-phenyl)-6-methoxy-3a-methyl-3a,4,9,10-tetrahydro-2,9,10a-triaza-cyclopenta[b]fluorene-1,3-dione]	39.8 to 251
COc1cc2c3c([nH]c2cc1F)[C@@H](c1cccc(O)c1)N1C(=O)N(CCCN(C)C(C)C)C(=O)[C@]1(C)C3 (racemic) [Example 319, (3aSR,10RS)-7-Fluoro-10-(3-hydroxy-phenyl)-2-[3-(isopropyl-methyl-amino)-propyl]-6-methoxy-3a-methyl-3a,4,9,10-tetrahydro-2,9,10a-triaza-cyclopenta[b]fluorene-1,3-dione]	39.8 to 251
COc1cc2c3c([nH]c2cc1F)[C@@H](c1cccc(O)c1)N1C(=O)N(CCCN2CCOCC2)C(=O)[C@]1(C)C3 (racemic) [Example 321, (3aSR,10RS)-7-Fluoro-10-(3-hydroxy-phenyl)-6-methoxy-3a-methyl-2-(3-morpholin-4-yl-propyl)-3a,4,9,10-tetrahydro-2,9,10a-triaza-cyclopenta[b]fluorene-1,3-dione]	39.8 to 251
COc1cc2c3c([nH]c2cc1F)[C@@H](c1cccc(O)c1)N1C(=O)N(CCCN2CCCC2)C(=O)[C@]1(C)C3 (racemic) [Example 322, (3aSR,10RS)-7-Fluoro-10-(3-hydroxy-phenyl)-6-methoxy-3a-methyl-2-(3-pyrrolidin-1-yl-propyl)-3a,4,9,10-tetrahydro-2,9,10a-triaza-cyclopenta[b]fluorene-1,3-dione]	39.8 to 251
COc1cc2c3c([nH]c2cc1F)[C@@H](c1cccc(O)c1)N1C(=O)N(CCCN2CC=CC2)C(=O)[C@]1(C)C3 (racemic) [Example 323, (3aSR,10RS)-2-[3-(2,5-Dihydro-pyrrol-1-yl)-propyl]-7-fluoro-10-(3-hydroxy-phenyl)-6-methoxy-3a-methyl-3a,4,9,10-tetrahydro-2,9,10a-triaza-cyclopenta[b]fluorene-1,3-dione]	39.8 to 251
COc1cc2c3c([nH]c2cc1F)[C@@H](c1cccc(O)c1)N1C(=O)N(CCCN2CCCCC2)C(=O)[C@]1(C)C3 (racemic) [Example 324, (3aSR,10RS)-7-Fluoro-10-(3-hydroxy-phenyl)-6-methoxy-3a-methyl-2-(3-piperidin-1-yl-propyl)-3a,4,9,10-tetrahydro-2,9,10a-triaza-cyclopenta[b]fluorene-1,3-dione]	39.8 to 251
COc1cc2c3c([nH]c2cc1F)[C@@H](c1cccc(O)c1)N1C(=O)N(CCCN2CCN(C)CC2)C(=O)[C@]1(C)C3 (racemic) [Example 325, (3aSR,10RS)-7-Fluoro-10-(3-hydroxy-phenyl)-6-methoxy-3a-methyl-2-[3-(4-methyl-piperazin-1-yl)-propyl]-3a,4,9,10-tetrahydro-2,9,10a-triaza-cyclopenta[b]fluorene-1,3-dione]	39.8 to 251
COc1cc2c3c([nH]c2cc1F)[C@@H](c1cccc(O)c1)N1C(=O)N(CCCN2CC=CCC2)C(=O)[C@]1(C)C3 (racemic) [Example 326, (3aSR,10RS)-2-[3-(3,6-Dihydro-2H-pyridin-1-yl)-propyl]-7-fluoro-10-(3-hydroxy-phenyl)-6-methoxy-3a-methyl-3a,4,9,10-tetrahydro-2,9,10a-triaza-cyclopenta[b]fluorene-1,3-dione]	39.8 to 251
COc1cc2c3c([nH]c2cc1F)[C@@H](c1cccc(O)c1)N1C(=O)N(CCCN2CCC(C)CC2)C(=O)[C@]1(C)C3 (racemic) [Example 327, (3aSR,10RS)-7-Fluoro-10-(3-hydroxy-phenyl)-6-methoxy-3a-methyl-2-[3-(4-methyl-piperidin-1-yl)-propyl]-3a,4,9,10-tetrahydro-2,9,10a-triaza-cyclopenta[b]fluorene-1,3-dione]	39.8 to 251
COc1cc2c3c([nH]c2cc1F)[C@@H](c1cccc(O)c1)N1C(=O)N(CCCN2CCCCCC2)C(=O)[C@]1(C)C3 (racemic) [Example 329, (3aSR,10RS)-2-(3-Azepan-1-yl-propyl)-7-fluoro-10-(3-hydroxy-phenyl)-6-methoxy-3a-methyl-3a,4,9,10-tetrahydro-2,9,10a-triaza-cyclopenta[b]fluorene-1,3-dione]	39.8 to 251
CCNCCCN1C(=O)N2[C@H](c3cccc(O)c3)c3[nH]c4cc(F)c(OC)cc4c3C[C@@]2(C)C1=O (racemic) [Example 330, (3aSR,10RS)-2-(3-Ethylamino-propyl)-7-fluoro-10-(3-hydroxy-phenyl)-6-methoxy-3a-methyl-3a,4,9,10-tetrahydro-2,9,10a-triaza-cyclopenta[b]fluorene-1,3-dione]	39.8 to 251
